Experiments:
[1] = Measurement of relaxivity (r1, r2) in 3T MRI phantom; format: physicochemical; details: tertiary distilled water, 0.0625-1 mM, linear regression, in mM-1·s-1 (unit assumed)
Description: The relaxivity (r1, r2) of each of synthesized Gd-DO3A-Hba, and cyclic commercial contrast agents Gadovist® and Dotarem® as comparison groups material was measured. Specifically, a phantom was prepared by diluting the gadolinium complex in tertiary distilled water to five concentrations (0.0625, 0.125, 0.25, 0.5, 1 mM), and then T1 and T2 relaxation times were measured in 3T MRI. Thus, R (Relaxation rate=1/T) of each concentration was calculated and the relaxivity (r1, r2) result of the gadolinium complex was obtained through linear regression analysis (see FIG. 3) and shown in a following Table 1.

[2] = molecular target: amyloid beta polymer (Homo sapiens, UniProt P05067); assay: Amyloid beta polymer targeting ability, phantom experiment on 9.4T MR; format: binding; details: incubated with amyloid beta polymer 37° C. 24 hours, washed pellet, FIG. 6
Sequence of amyloid beta polymer (P05067 672-713 limits assumed): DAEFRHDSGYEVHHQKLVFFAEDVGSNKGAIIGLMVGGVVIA
Description: (1) 221.5 μL of HFIP was added to 1 mg of amyloid beta at a concentration of 1 mM, followed by shaking for 1 hour at room temperature using a shaker to remove preaggregation. (2) The amyloid beta from which the preaggregation was removed was dried, and 221.5 μL of DMSO was added thereto to achieve a 1 mM concentration. Using a mixer and sonicator, a suspension thereof was prepared, and 878.5 μL of PBS (1×, pH 7.4) was added thereto to achieve a 0.2 mM concentration. (3) After incubating the suspension at 37° C. for 4 days using a shaker, the polymerized amyloid beta polymer was dispensed by 200 μL. Then, 20 μL of a solution in which each of Gd-DO3A-Hba and the commercial contrast agent (Gadovist®) was dissolved in PBS at 2 mM concentration was added thereto. The incubation was carried out thereon at 37° C. for 24 hours using a shaker. (4) After 24 hours has elapsed, centrifugation was performed thereon to remove the supernatant therefrom. The amyloid beta polymer was washed using PBS. 200 μL of a solution of PBS:DMSO=9:1 was added to a pellet to prepare an MRI phantom sample. As a control, a phantom sample obtained by incubating only the amyloid beta polymer was used. […]

relaxivity r1 [1] | relaxivity r2 [1] | SMILES | signal intensity / contrast enhancement compared to phantom of only amyloid beta polymer [2]
3.4 ± 0.1 | 3.9 ± 0.2 | O=C([O-])CN1CCN(CC(=O)[O-])CCN(CC(=O)[O-])CCN(CC(=O)[O-])CC1.[Gd+3] [Dotarem ®, Gd-DOTA] | 
3.9 ± 0.1 | 4.9 ± 0.1 | O=C([O-])CN1CCN(CC(=O)[O-])CCN([C@H](CO)[C@H](O)CO)CCN(CC(=O)[O-])CC1.[Gd+3] (racemic) [Gadovist ®] | little difference in contrast enhancement effect

— patent publication US20250319212A1, “GADOLINIUM-BASED COMPOUND, AND MRI CONTRAST AGENT INCLUDING SAME” (KYUNGPOOK NATIONAL UNIVERSITY INDUSTRY-ACADEMIC COOPERATION …, priority 2021, published 2025)
